From US20050250819A1 (priority 2004, published 2005)

Test system: Type III protein secretion of the chimeric SopE‘-’Bla polypeptide (SPI1 type III protein secretion system)
Experiment: Primary assay: Type III protein secretion of the chimeric SopE'-'Bla polypeptide by Salmonella enterica
Assay type: cell-based
Settings: read-out: SopE IC50(μM)
Excerpt: Primary assay: Type III protein secretion of the chimeric SopE‘-’Bla polypeptide by Salmonella enterica. This procedure is a cell-based assay that measures the type III-dependent secretion by Salmonella enterica of a plasmid-encoded chimeric polypeptide whose synthesis can be regulated, and which is endowed with an enzymatic activity that can be monitored colorimetrically by hydrolysis of a substrate that is unable to penetrate into the bacterial cytoplasm within the time constraints of the reaction. Thus, the colormetric reaction is not influenced by SopE‘-’Bla polypeptide in the bacterial cytplasm. Instead, it effectively measures the amount of polypeptide that has been secreted from the S. enterica cytoplasm to the extracellular medium via type III system protein secretion.
The SopE‘-’Bla recombinant polypeptide consists of two functionally distinct domains spliced together. The N-terminus domain is encoded by a polynucleotide region specifying the signal for type III secretion of the SopE polypeptide of S. enterica, an effector of the SPI1 type III protein secretion system. The C-terminus domain of SopE‘-’Bla consists of a 263 amino acid peptide sequence that corresponds to the TEM-1 β-lactamase expressed by plasmid pBR322 but without its N-terminal signal sequence. The TEM-1 β-lactamase part of the SopE‘-’Bla chimeric polypeptide is used as a reporter enzyme. It is capable of hydrolyzing nitrocefin resulting in a product whose accumulation can be monitored by colorimetric detection. The secretion of the SopE‘-’Bla chimeric polypeptide from the cytoplasm to the extracellular medium is dependent on type III protein secretion.
For this procedure, cells grown under conditions known to favor a functional SPI1 secretion system are induced for expression of the SopE‘-’Bla protein and grown either in the presence or in the absence of putative inhibitors for determined time. Nitrocefin is then added to the various cultures and its hydrolysis are used for quantitation. An inhibitor of Type III protein secretion is generally a compound that reduces the signal of the enzymatic reaction by decreasing the amount of SopE‘-’Bla secreted into the extracellular medium.

| SMILES | IC50 [µM] |
| --- | --- |
| O=C(N[C@@H](CSCc1ccccc1)C(=O)O)C(=Cc1ccc2ccccc2c1)NC(=O)c1ccc(I)cc1 [Compound 46, (R)-3-Benzylsulfanyl-2-[2-(4-iodobenzoylamino)-3-naphthalen-2-yl-acryloylamino]propionic acid] | 28.6 |
| O=C(NN(Cc1cccc(C(F)(F)F)c1)C(=O)NC(Cc1ccc(Cl)cc1)C(=O)O)c1ccc(-c2ccccc2)cc1 (stereo not shown) [Compound 51, 4-Biphenylcarboxylic acid-N′-[(3-trifluoromethylphenyl)methyl]-N′-[[[2-(4-chlorophenyl)-1-carboxyethyl]amino]carbonyl]hydrazide] | 8 |
| O=C(NN(Cc1ccc(Cl)c(C(F)(F)F)c1)C(=O)NC(Cc1ccc(Cl)cc1)C(=O)O)c1ccc(-c2ccccc2)cc1 (stereo not shown) [Compound 52, 4-Biphenylcarboxylic acid-N′-[(4-chloro-3-trifluoromethylphenyl)methyl]-N′-[[[2-(4-chlorophenyl)-1-carboxyethyl]amino]carbonyl]hydrazide] | 3.1 |
| O=C(N[C@@H](CSCc1ccccc1)C(=O)O)/C(=C\c1ccc(OCc2ccncc2)cc1)NC(=O)c1ccc(C(F)(F)F)cc1 [Compound 59, (R)-3-Benzylsulfanyl-2-[3-[4-(pyridin-4-yl-methoxy)phenyl]-2-(4-trifluoromethyl-benzoylamino)acryloylamino]propionic acid] | 73.4 |
| O=C(NC(Cc1ccc(Br)cc1)C(=O)O)/C(=C\c1cccc(C(F)(F)F)c1)NC(=O)c1ccc(-c2ccccc2)cc1 (stereo not shown) [Compound 60, 2-[2-[(Biphenyl-4-carbonyl)amino]-3-(3-trifluoromethylphenyl)acryloylamino]-3-(4-bromophenyl)propionic acid] | 9.2 |
| O=C(NC(=Cc1cccc(C(F)(F)F)c1)C(=O)N1C(c2ccc(F)cc2)SC[C@H]1C(=O)O)c1ccc(-c2ccccc2)cc1 (stereo partly drawn) [Compound 61, (4R)-3-[2-[(Biphenyl-4-carbonyl)amino]-3-(3-trifluoromethylphenyl)acryloyl]-2-(4-fluorophenyl)thiazolidine-4-carboxylic acid] | 3.7 |
| O=C(N[C@H](CSCc1ccccc1)C(=O)O)/C(=C\c1ccc(C(F)(F)F)cc1)NC(=O)c1cc2ccccc2s1 [Compound 64, (S)-2-[2-[(Benzo[b]thiophene-2-carbonyl)amino]-3-(4-trifluoromethylphenyl)-acryloylamino]-3-benzylsulfanylpropionic acid] | 49.4 |
| O=C(N[C@H](COCc1ccccc1)C(=O)O)/C(=C\c1ccc(C(F)(F)F)cc1)NC(=O)c1cc2ccccc2s1 [Compound 65, (R)-2-[2-[(Benzo[b]thiophene-2-carbonyl)amino]-3-(4-trifluoromethylphenyl)-acryloylamino]-3-benzyloxypropionic acid] | 88 |
| O=C(N[C@@H](Cc1ccc(Cl)cc1)C(=O)O)/C(=C\c1ccc(Cl)c(Cl)c1)NC(=O)c1cc2ccccc2s1 [Compound 66, (S)-2-[2-[(Benzo[b]thiophene-2-carbonyl)amino]-3-(3,4-dichlorophenyl)-acryloylamino]-3-(4-chlorophenyl)propionic acid] | 19 |
| O=C(N[C@H](CSCc1ccccc1)C(=O)O)/C(=C\c1ccc(Cl)c(Cl)c1)NC(=O)c1cc2ccccc2s1 [Compound 67, (S)-2-[2-[(Benzo[b]thiophene-2-carbonyl)amino]-3-(3,4-dichlorophenyl)-acryloylamino]-3-benzylsulfanylpropionic acid] | 27 |
| O=C(N[C@H](COCc1ccccc1)C(=O)O)/C(=C\c1ccc(Cl)c(Cl)c1)NC(=O)c1cc2ccccc2s1 [Compound 68, (R)-2-[2-[(Benzo[b]thiophene-2-carbonyl)amino]-3-(3,4-dichlorophenyl)-acryloylamino]-3-benzyloxypropionic acid] | 52 |
| O=C(N[C@@H](Cc1ccc(Cl)cc1)C(=O)O)/C(=C\c1cccc(C(F)(F)F)c1)NC(=O)c1cc2ccccc2o1 [Compound 69, (S)-2-[2-[(Benzofuran-2-carbonyl)amino]-3-(3-trifluoromethylphenyl)acryloylamino]-3-(4-chlorophenyl)propionic acid] | 28.5 |
| Cn1cc(C(=O)N/C(=C/c2cccc(C(F)(F)F)c2)C(=O)N[C@H](COCc2ccccc2)C(=O)O)c2ccccc21 [Compound 70, (R)-3-Benzyloxy-2-[2-[(1-methyl-1H-indole-3-carbonyl)amino]-3-(3-trifluoromethylphenyl)acryloylamino]propionic acid] | 86.3 |
| O=C(NC(Cc1ccc(F)cc1)C(=O)O)/C(=C\c1cccc(C(F)(F)F)c1)NC(=O)c1ccc(-c2ccccc2)cc1 (stereo not shown) [Compound 71, 2-[2-[(Biphenyl-4-carbonyl)amino]-3-(3-trifluoromethylphenyl)acryloylamino]-3-(4-fluorophenyl)propionic acid] | 34.2 |
| O=C(NC(Cc1ccc(C(F)(F)F)cc1)C(=O)O)/C(=C\c1cccc(C(F)(F)F)c1)NC(=O)c1ccc(-c2ccccc2)cc1 (stereo not shown) [Compound 72, 2-[2-[(Biphenyl-4-carbonyl)amino)-3-(3-trifluoromethylphenyl)acryloylamino]-3-(4-trifluoromethylphenyl)propionic acid] | 12.8 |
| O=C(N[C@H](COCc1ccccc1)C(=O)O)/C(=C\c1ccc(Cl)c(Cl)c1)NC(=O)C1CCN(c2nccc(C(F)(F)F)n2)CC1 [Compound 73, (R)-3-Benzyloxy-2-(3-(3,4-dichlorophenyl)-2-{[1-(4-trifluoromethylpyrimidin-2-yl)-piperidine-4-carbonyl]amino}acryloylamino)propionic acid] | 12.8 |
| O=C(N[C@@H](Cc1ccc(Cl)cc1)C(=O)O)/C(=C\c1cccc(C(F)(F)F)c1)NC(=O)C1CCN(c2nccc(C(F)(F)F)n2)CC1 [Compound 79, (S)-3-(4-Chlorophenyl)-2-(3-(3-trifluoromethylphenyl)-2-{[1-(4-trifluoromethyl-pyrimidin-2-yl)piperidine-4-carbonyl]amino}acryloylamino)propionic acid] | 25.9 |
| O=C(N[C@H](COCc1ccccc1)C(=O)O)/C(=C\c1ccc(Br)cc1)NC(=O)C1CCN(c2nccc(C(F)(F)F)n2)CC1 [Compound 80, (R)-3-Benzyloxy-2-(3-(4-bromophenyl)-2-{[1-(4-trifluoromethylpyrimidin-2-yl)-piperidine-4-carbonyl]amino}acryloylamino)propionic acid] | 38.5 |
| O=C(N[C@@H](CSCc1ccccc1)C(=O)O)/C(=C\c1ccc(Br)cc1)NC(=O)C1CCN(c2nccc(C(F)(F)F)n2)CC1 [Compound 81, (R)-3-Benzylsulfanyl-2-(3-(4-bromophenyl)-2-{[1-(4-trifluoromethylpyrimidin-2-yl)piperidine-4-carbonyl]amino}acryloylamino)propionic acid] | 58.1 |
| O=C(N[C@@H](Cc1ccc(Cl)cc1)C(=O)O)/C(=C\c1ccc(Br)cc1)NC(=O)C1CCN(c2nccc(C(F)(F)F)n2)CC1 [Compound 82, (S)-2-(3-(4-Bromophenyl)-2-{[1-(4-trifluoromethylpyrimidin-2-yl)piperidine-4-carbonyl]amino}acryloylamino)-3-(4-chlorophenyl)propionic acid] | 27.8 |
| O=C(N[C@@H](Cc1ccc(Cl)cc1)C(=O)O)/C(=C\c1ccc(OC(F)(F)F)cc1)NC(=O)C1CCN(c2nccc(C(F)(F)F)n2)CC1 [Compound 85, (S)-3-(4-Chlorophenyl)-2-(3-(4-trifluoromethoxyphenyl)-2-{[1-(4-trifluoromethyl-pyrimidin-2-yl)piperidine-4-carbonyl]amino}acryloylamino)propionic acid] | 35.2 |
| O=C(O)C(Cc1ccc(Cl)cc1)NC(=O)N(CCc1ccc(-c2ccccc2)cc1)Cc1cccc(C(F)(F)F)c1 (stereo not shown) [Compound 87, 2-[3-(2-Biphenyl-4-yl-ethyl)-3-(3-trifluoromethylbenzyl)ureido]-3-(4-chlorophenyl)propionic acid] | 1.5 |
| O=C(O)[C@H](COCc1ccccc1)NC(=O)N(CCc1ccc(-c2ccccc2)cc1)Cc1cccc(C(F)(F)F)c1 [Compound 88, (S)-3-Benzyloxy-2-[3-(2-biphenyl-4-yl-ethyl)-3-(3-trifluoromethylbenzyl)ureido]propionic acid] | 4 |
| O=C(O)[C@H](COCc1ccccc1)NC(=O)N(CCc1ccc(-c2ccccc2)cc1)Cc1ccc(Cl)c(Cl)c1 [Compound 89, (S)-3-Benzyloxy-2-[3-(2-biphenyl-4-yl-ethyl)-3-(3,4-dichlorobenzyl)ureido]propionic acid] | 2.1 |
| CC(C)(S)C(NC(=O)/C(=C\c1ccc(-c2ccccc2)cc1)NC(=O)c1ccc(C(F)(F)F)cc1)C(=O)O (stereo not shown) [Compound 90] | 7.8 |
| O=C(NC(Cc1ccc(Cl)cc1)C(=O)O)/C(=C\c1ccc(Cl)c(Cl)c1)NC(=O)c1ccc(C(F)(F)F)cc1 (stereo not shown) [Compound 91] | 7.6 |
| CC(C)(S)C(NC(=O)/C(=C\c1ccc(Cl)c(Cl)c1)NC(=O)c1ccc(-c2ccccc2)cc1)C(=O)O (stereo not shown) [Compound 92] | 5 |
| Cc1ccc(/C=C(/NC(=O)c2ccc(-c3ccccc3)cc2)C(=O)NC(C(=O)O)C(C)(C)S)s1 (stereo not shown) [Compound 93] | 1.4 |
